Experimental data published in patent US20140148443A1, “Novel Imidazolines as dual inhibitors of MDM2 and MDMX” (priority 2012, published 2014).
Counter-ions that a name gives are not always drawn.

How the values were obtained:
[1] = target: recombinant GST-tagged MDM2 (Homo sapiens, UniProt Q00987); assay: HTRF assay of interaction between p53 peptide and GST-tagged MDM2; settings: inhibition of GST-MDM2 (160 ng/ml) binding to biotinylated p53-peptide
Procedure: The ability of a test compound to inhibit the interaction between p53 and MDM2 protein was measured by an HTRF (homogeneous time-resolved fluorescence) assay in which recombinant GST-tagged MDM2 binds to a peptide that resembles the MDM2-interacting region of p53 Aca-[…]-OH hereinafter p53-peptide). Binding of GST-MDM2 protein and p53-peptide (biotinylated on its N-terminal end) is registered by the FRET (fluorescence resonance energy transfer) between Europium (Eu)-labeled anti-GST antibody and streptavidin-conjugated Allophycocyanin (APC).
The test was performed in black flat-bottom 384-well plates (Costar) in a total volume of 40 uL containing: 90 nM biotinylated peptide, 160 ng/ml GST-MDM2, 20 nM streptavidin-APC (PerkinElmerWallac), 2 nM Eu-labeled anti-GST-antibody (PerkinElmerWallac), 0.02% bovine serum albumin (BSA), 1 mM dithiothreitol (DTT) and 20 mM […] (TBS) buffer as follows: add 10 uL of GST-MDM2 (640 ng/ml working solution) in reaction buffer to each well. Add 10 uL diluted compounds (1:5 dilution in reaction buffer) to each well, mix by shaking. Add 20 uL biotinylated p53 peptide (180 nM working solution) in reaction buffer to each well and mix on shaker. Incubate at 37° C. for 1 h. Add […] streptavidin-APC and Eu-anti-GST antibody mixture (6 nM Eu-anti-GST and 60 nM streptavidin-APC working solution) in TBS buffer with 0.02% BSA, shake at room temperature for 30 minutes and read using a TRF-capable plate reader at 665 and 615 nm (Victor 5, Perkin ElmerWallac). If not specified, the reagents were purchased from Sigma Chemical Co.

GST-tagged MDMX = target: T1, GST-tagged MDMX (Homo sapiens, UniProt O15151); assay: HTRF binding assay of GST-tagged MDMX to p53 peptide
T1 sequence (O15151 1-490): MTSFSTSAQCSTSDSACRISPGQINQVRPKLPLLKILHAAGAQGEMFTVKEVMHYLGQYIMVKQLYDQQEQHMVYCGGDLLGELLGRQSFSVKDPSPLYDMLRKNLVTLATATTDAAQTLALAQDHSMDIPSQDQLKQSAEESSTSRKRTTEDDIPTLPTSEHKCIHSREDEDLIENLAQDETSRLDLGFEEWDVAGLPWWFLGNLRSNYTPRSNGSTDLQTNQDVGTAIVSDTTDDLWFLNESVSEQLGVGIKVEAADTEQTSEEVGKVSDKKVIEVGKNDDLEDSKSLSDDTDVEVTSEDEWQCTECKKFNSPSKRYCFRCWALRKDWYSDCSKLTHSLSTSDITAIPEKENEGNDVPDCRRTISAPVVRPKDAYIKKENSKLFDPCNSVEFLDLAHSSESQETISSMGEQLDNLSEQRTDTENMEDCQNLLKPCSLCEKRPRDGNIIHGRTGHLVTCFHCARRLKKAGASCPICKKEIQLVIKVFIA

Chain of recombinant GST-tagged MDM2 (Q00987 whole entry): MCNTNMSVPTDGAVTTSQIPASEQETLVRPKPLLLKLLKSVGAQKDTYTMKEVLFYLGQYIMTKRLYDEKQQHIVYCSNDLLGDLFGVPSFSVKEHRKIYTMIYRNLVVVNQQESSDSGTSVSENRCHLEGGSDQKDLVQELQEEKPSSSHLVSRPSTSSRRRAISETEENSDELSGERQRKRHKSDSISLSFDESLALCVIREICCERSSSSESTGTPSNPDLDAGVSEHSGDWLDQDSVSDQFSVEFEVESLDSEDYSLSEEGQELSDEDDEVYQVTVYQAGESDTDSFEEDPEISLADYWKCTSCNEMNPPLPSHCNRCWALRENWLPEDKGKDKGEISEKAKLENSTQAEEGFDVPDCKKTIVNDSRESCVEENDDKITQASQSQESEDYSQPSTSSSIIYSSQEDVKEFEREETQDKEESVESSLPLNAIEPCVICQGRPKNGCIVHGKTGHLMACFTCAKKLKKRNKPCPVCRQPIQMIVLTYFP

| SMILES | IC50 [1] | IC50 (GST-tagged MDMX) |
| --- | --- | --- |
| CCOc1cc(Cl)c(S(C)(=O)=O)cc1C1=N[C@@](C)(c2ccc(Cl)cc2)[C@@](C)(c2ccc(Cl)cc2)N1C(=O)N1CCC(CCCS(C)(=O)=O)CC1 [Example 22, [(4S,5R)-2-(4-Chloro-2-ethoxy-5-methanesulfonyl-phenyl)-4,5-bis-(4-chloro-phenyl)-4,5-dimethyl-4,5-dihydro-imidazol-1-yl]-[4-(3-methanesulfonyl-propyl)-piperidin-1-yl]-methanone] | 4.6 nM | 1350 nM |
| CCOc1cc(Cl)c(S(=O)(=O)NC(C)(C)C)cc1C1=N[C@@](C)(c2ccc(Cl)cc2)[C@@](C)(c2ccc(Cl)cc2)N1C(=O)N1CCN(C2CCS(=O)(=O)C2)CC1 (stereo partly drawn) [Example 51, 5-{(4S,5R)-4,5-Bis-(4-chloro-phenyl)-1-[4-(1,1-dioxo-tetrahydro-thiophen-3-yl)-piperazine-1-carbonyl]-4,5-dimethyl-4,5-dihydro-1H-imidazol-2-yl}-N-tert-butyl-2-chloro-4-ethoxy-benzenesulfonamide] | 7 nM | 798 nM |
| CCOc1cc(Cl)c(S(C)(=O)=O)cc1C1=N[C@@](C)(c2ccc(Cl)cc2)[C@@](C)(c2ccc(Cl)cc2)N1C(=O)N1CCN(CC(=O)N(CCOC(C)C)CCOC(C)C)CC1 [Example 23, 2-{4-[(4S,5R)-2-(4-Chloro-2-ethoxy-5-methanesulfonyl-phenyl)-4,5-bis-(4-chloro-phenyl)-4,5-dimethyl-4,5-dihydro-imidazole-1-carbonyl]-piperazin-1-yl}-N,N-bis-(2-isopropoxy-ethyl)-acetamide] | 5.5 nM | 1850 nM |
| CCOc1cc(Cl)c(S(=O)(=O)N2CCCC2)cc1C1=N[C@@](C)(c2ccc(Cl)cc2)[C@@](C)(c2ccc(Cl)cc2)N1C(=O)N1CCC(CC(N)=O)CC1 [Example 56, 2-{1-[(4S,5R)-2-[4-Chloro-2-ethoxy-5-(pyrrolidine-1-sulfonyl)-phenyl]-4,5-bis-(4-chloro-phenyl)-4,5-dimethyl-4,5-dihydro-imidazole-1-carbonyl]-piperidin-4-yl}-acetamide] | 8.5 nM | 3430 nM |
| CCOc1cc(Cl)c(S(=O)(=O)NC(C)(C)C)cc1C1=N[C@@](C)(c2ccc(Cl)cc2)[C@@](C)(c2ccc(Cl)cc2)N1C(=O)N1CCN(CCOCCO)CC1 [Example 46, 5-((4S,5R)-4,5-Bis-(4-chloro-phenyl)-1-{4-[2-(2-hydroxy-ethoxy)-ethyl]-piperazine-1-carbonyl}-4,5-dimethyl-4,5-dihydro-1H-imidazol-2-yl)-N-tert-butyl-2-chloro-4-ethoxy-benzenesulfonamide] | 12.2 nM | 1810 nM |
| CC(C)Oc1cc(Cl)c(S(=O)(=O)N2C[C@H]3CC[C@@H](C2)O3)cc1C1=N[C@@](C)(c2ccc(Cl)cc2)[C@@](C)(c2ccc(Cl)cc2)N1C(=O)N1CCN(CCCS(C)(=O)=O)CC1 [Example 62, [(4S,5R)-2-{4-Chloro-2-isopropoxy-5-[(1R,5S)-(8-oxa-3-aza-bicyclo[3.2.1]oct-3-yl)sulfonyl]-phenyl}-4,5-bis-(4-chloro-phenyl)-4,5-dimethyl-4,5-dihydro-imidazol-1-yl]-[4-(3-methanesulfonyl-propyl)-piperazin-1-yl]-methanone] | 4.8 nM | 193 nM |
| CCOc1cc(Cl)c(S(=O)(=O)NC(C)(C)C)cc1C1=N[C@@](C)(c2ccc(Cl)cc2)[C@@](C)(c2ccc(Cl)cc2)N1C(=O)N1CCN(C(=O)Cn2cnnn2)CC1 [Example 52, 5-{(4S,5R)-4,5-Bis-(4-chloro-phenyl)-4,5-dimethyl-1-[4-(2-tetrazol-1-yl-acetyl)-piperazine-1-carbonyl]-4,5-dihydro-1H-imidazol-2-yl}-N-tert-butyl-2-chloro-4-ethoxy-benzene sulfonamide] | 17.3 nM | 3760 nM |
| CC(C)Oc1cc(Cl)c(S(=O)(=O)N2CCCC2)cc1C1=N[C@@](C)(c2ccc(Cl)cc2)[C@@](C)(c2ccc(Cl)cc2)N1C(=O)N1CCN(CCCS(C)(=O)=O)CC1 [Example 58, [(4S,5R)-2-[4-Chloro-2-isopropoxy-5-(pyrrolidine-1-sulfonyl)-phenyl]-4,5-bis-(4-chloro-phenyl)-4,5-dimethyl-4,5-dihydro-imidazol-1-yl]-[4-(3-methanesulfonyl-propyl)-piperazin-1-yl]-methanone] | 4.6 nM | 232 nM |
| CCOc1cc(Cl)c(S(C)(=O)=O)cc1C1=N[C@@](C)(c2ccc(Cl)cc2)[C@@](C)(c2ccc(Cl)cc2)N1C(=O)N1CCN(CC(=O)N2CCOCC2)CC1 [Example 17, 2-{4-[(4S,5R)-2-(4-Chloro-2-ethoxy-5-methanesulfonyl-phenyl)-4,5-bis-(4-chloro-phenyl)-4,5-dimethyl-4,5-dihydro-imidazole-1-carbonyl]-piperazin-1-yl}-1-morpholin-4-yl-ethanone] | 5.2 nM | 1340 nM |
| CCOc1cc(Cl)c(S(=O)(=O)CC)cc1C1=N[C@@](C)(c2ccc(Cl)cc2)[C@@](C)(c2ccc(Cl)cc2)N1C(=O)N1CCN(CCCS(C)(=O)=O)CC1 [Example 12, [(4S,5R)-2-(4-Chloro-5-ethanesulfonyl-2-ethoxy-phenyl)-4,5-bis-(4-chloro-phenyl)-4,5-dimethyl-4,5-dihydro-imidazol-1-yl]-[4-(3-methanesulfonyl-propyl)-piperazin-1-yl]-methanone] | 5.5 nM | 989 nM |
| CC(C)Oc1cc(Cl)c(S(=O)(=O)NC(C)(C)C)cc1C1=N[C@@](C)(c2ccc(Cl)cc2)[C@@](C)(c2ccc(Cl)cc2)N1C(=O)N1CCN(CCCS(C)(=O)=O)CC1 [Example 63, 5-{(4S,5R)-4,5-Bis-(4-chloro-phenyl)-1-[4-(3-methanesulfonyl-propyl)-piperazine-1-carbonyl]-4,5-dimethyl-4,5-dihydro-1H-imidazol-2-yl}-N-tert-butyl-2-chloro-4-isopropoxy-benzenesulfonamide] | 4.4 nM | 212 nM |
| CCOc1cc(Cl)c(S(C)(=O)=O)cc1C1=N[C@@](C)(c2ccc(Cl)cc2)[C@@](C)(c2ccc(Cl)cc2)N1C(=O)N1CCC(NC(=O)N2CCCC2)CC1 [Example 30, Pyrrolidine-1-carboxylic acid {1-[(4S,5R)-2-(4-chloro-2-ethoxy-5-methanesulfonyl-phenyl)-4,5-bis-(4-chloro-phenyl)-4,5-dimethyl-4,5-dihydro-imidazole-1-carbonyl]-piperidin-4-yl}-amide] | 12.7 nM | 3350 nM |
| CCOc1cc(Cl)c(S(C)(=O)=O)cc1C1=N[C@@](C)(c2ccc(Cl)cc2)[C@@](C)(c2ccc(Cl)cc2)N1C(=O)N1CCNC(=O)C1 [Example 2, 4-[(4S,5R)-2-(4-Chloro-2-ethoxy-5-methanesulfonyl-phenyl)-4,5-bis-(4-chloro-phenyl)-4,5-dimethyl-4,5-dihydro-imidazole-1-carbonyl]-piperazin-2-one] | 5.7 nM | 1080 nM |
| CCOc1cc(Cl)c(S(C)(=O)=O)cc1C1=N[C@@](C)(c2ccc(Cl)cc2)[C@@](C)(c2ccc(Cl)cc2)N1C(=O)N1CCN(CC(=O)O)CC1 [Example 35, {4-[(4S,5R)-2-(4-Chloro-2-ethoxy-5-methanesulfonyl-phenyl)-4,5-bis-(4-chloro-phenyl)-4,5-dimethyl-4,5-dihydro-imidazole-1-carbonyl]-piperazin-1-yl}-acetic acid, hydrochloride] | 6.7 nM | 2860 nM |
| CCOc1cc(Cl)c(S(C)(=O)=O)cc1C1=N[C@@](C)(c2ccc(Cl)cc2)[C@@](C)(c2ccc(Cl)cc2)N1C(=O)N1CCC(NC(N)=O)CC1 [Example 32, {1-[(4S,5R)-2-(4-Chloro-2-ethoxy-5-methanesulfonyl-phenyl)-4,5-bis-(4-chloro-phenyl)-4,5-dimethyl-4,5-dihydro-imidazole-1-carbonyl]-piperidin-4-yl}-urea] | 5.2 nM | 1460 nM |
| CCOc1cc(Cl)c(S(C)(=O)=O)cc1C1=N[C@@](C)(c2ccc(Cl)cc2)[C@@](C)(c2ccc(Cl)cc2)N1C(=O)N1CCC(NC(=O)NC2CCCC2)CC1 [Example 31, 1-{1-[(4S,5R)-2-(4-Chloro-2-ethoxy-5-methanesulfonyl-phenyl)-4,5-bis-(4-chloro-phenyl)-4,5-dimethyl-4,5-dihydro-imidazole-1-carbonyl]-piperidin-4-yl}-3-cyclopentyl-urea] | 5.3 nM | 1590 nM |
